# Test results from publication PMC5837957 (European journal of medicinal chemistry, 2018).
# Values joined by “and” are separate entries in the source; they are usually repeats but may differ in a detail not shown here. Equal entries are not always repeated. “Also recorded” adds a separate entry of the source. Where two headings read alike, the source gives them in different places. Positions of bridges follow the written chain, without caps; N, C: chain ends. Residues, ends and D or L forms follow the SMILES beside them. *: point of attachment. Stearoyl = CCCCCCCCCCCCCCCCCC(=O)*; Octanoyl = CCCCCCCC(=O)*
# How the values were obtained:
# MCF-7 breast cancer line [1] = test: cells; conditions: Homo sapiens, MCF7, 72 h, 72-hour treatment
# [2] = tested on: Calu-6 lung cancer cell line; test: cells; conditions: Homo sapiens, Calu-6, 72 h, 72-hour treatment
# [3] = tested on: Calu-6 lung cancer cell line; conditions: for IC50: 2 h; for % cell death Calu 6: 72-hour treatment, inactive indicates no growth inhibition at a concentration of 100 µM
# MCF-7 breast cancer line [4] = conditions: 2 h
# [5] = tested on: global H3K4me2 in Calu6 lung adenocarcinoma cells; test: Western blot of global H3K4me2, Calu6; conditions: 10 µM, 48-hour exposure
# [6] = tested on: H3K4me2 at the promoter of the FEZ1 gene in NCI-H526 cells; test: ChIP-qPCR of H3K4me2 at FEZ1 promoter; format: cell-based; conditions: 100 µM, 48 h
# [7] = tested on: global H3K4me2 in K562 leukemia cells; test: Western blot of global H3K4me2, K562
# [8] = tested on: H3K4me2 at the promoter of the IGFBP2 gene in NCI-H526 cells; test: ChIP-qPCR of H3K4me2 at IGFBP2 promoter; format: cell-based; conditions: 100 µM, 48 h
# [9] = tested on: K562 myelogenous leukemia cell line; conditions: for % cell death K562: 72-hour treatment
# recombinant LSD1/CoREST = recombinant LSD1/CoREST (Homo sapiens, UniProt O60341); test: In vitro LSD1 demethylation assay; format: biochemical; conditions: Table 3, truncated peptides; inhibitor 500 nM; 0.5 µM
# MCF-7 breast cancer line [10] = conditions: read-out: IC50 (MCF7); cited from earlier work
# [11] = tested on: Calu-6 lung cancer cell line; conditions: read-out: IC50 (Calu-6); cited from earlier work
# LSD1 bound to CoREST = conditions: read-out: Ki, LSD1 bound to CoREST; cited from earlier work
# recombinant LSD1 = conditions: cited from earlier work
compound,measurement,setting,value
"N=C(NCCCNCCCCCCCNCCCNC(=N)NC(=N)NCCC(c1ccccc1)c1ccccc1)NC(=N)NCCC(c1ccccc1)c1ccccc1 [Compound 3, verlindamycin]",IC50,"MCF-7 breast cancer line [1]; read-out: IC50 (MCF7), Table 2",5.1 µM
same,IC50,"MCF-7 breast cancer line [1]; read-out: IC50 (MCF7), Table 6",2.5 µM
same,IC50,"[2]; read-out: IC50 (Calu-6), Table 2",6.3 µM
same,IC50,"[2]; read-out: IC50 (Calu-6), Table 6",1.6 µM
CCCCCCCCCCCCCCCCCC(=O)NCCCC[C@H](NC(=O)[C@H](C)NC(=O)[C@H](CC(C)C)NC(=O)[C@H](CCC(N)=O)NC(=O)[C@H](CCCCN)NC(=O)[C@H](CCCNC(=N)N)NC(=O)[C@@H]1CCCN1C(=O)[C@H](C)NC(=O)[C@H](CCCCN)NC(=O)CNC(=O)CNC(=O)[C@@H](NC(=O)[C@@H]1CCC(=O)NCCCC[C@H](NC(=O)[C@H](CCSC)NC(=O)[C@@H](NC(=O)[C@H](CCCNC(=N)N)NC(=O)[C@H](C)N)[C@@H](C)O)C(=O)N[C@@H]([C@@H](C)O)C(=O)N[C@@H](C)C(=O)N[C@@H](CCCNC(=N)N)C(=O)N[C@@H](CCCCN)C(=O)N1)[C@@H](C)O)C(N)=O [Compound 25],IC50,[3],< 11 µM
same,IC50,MCF-7 breast cancer line [4],< 5 µM
CCCCCCCCCCCCCCCCCC(=O)NCCCC[C@H](NC(=O)[C@H](C)NC(=O)[C@H](CC(C)C)NC(=O)[C@H](CCC(N)=O)NC(=O)[C@H](CCCCN)NC(=O)[C@H](CCCNC(=N)N)NC(=O)[C@@H]1CCCN1C(=O)[C@H](C)NC(=O)[C@H](CCCCN)NC(=O)CNC(=O)CNC(=O)[C@@H](NC(=O)[C@@H]1CCC(=O)NCCCC[C@H](NC(=O)[C@H](CCSC)NC(=O)[C@H](C)NC(=O)[C@H](CCCNC(=N)N)NC(=O)[C@H](C)N)C(=O)N[C@@H]([C@@H](C)O)C(=O)N[C@@H](C)C(=O)N[C@@H](CCCNC(=N)N)C(=O)N[C@@H](CCCCN)C(=O)N1)[C@@H](C)O)C(N)=O [Compound 26] (H-ARAMKTARKETGGKAPRKQLAK(Stearoyl)-NH2; lactam 5-10),IC50,[3],< 11 µM
same,IC50,MCF-7 breast cancer line [4],< 5 µM
CCCCCCCC(=O)NCCCC[C@H](NC(=O)[C@H](C)NC(=O)[C@H](CC(C)C)NC(=O)[C@H](CCC(N)=O)NC(=O)[C@H](CCCCN)NC(=O)[C@H](CCCNC(=N)N)NC(=O)[C@@H]1CCCN1C(=O)[C@H](C)NC(=O)[C@H](CCCCN)NC(=O)CNC(=O)CNC(=O)[C@@H](NC(=O)[C@@H]1CCC(=O)NCCCC[C@H](NC(=O)[C@H](CCSC)NC(=O)[C@@H](NC(=O)[C@H](CCCNC(=N)N)NC(=O)[C@H](C)N)[C@@H](C)O)C(=O)N[C@@H]([C@@H](C)O)C(=O)N[C@@H](C)C(=O)N[C@@H](CCCNC(=N)N)C(=O)N[C@@H](CCCCN)C(=O)N1)[C@@H](C)O)C(N)=O [Compound 27],change in global H3K4 methylation compared to control,[5],did not induce any changes
same,H3K4me2 levels at the FEZ1 promoter,[6],increases H3K4me2 marks
same,IC50,[3],92.4 µM
same,increase in global H3K4me2 compared to control,"[7]; 10 µM, 48-hour exposure, normalized to GAPDH",17.6 fold
same,H3K4me2 levels at the IGFBP2 promoter,[8],increases H3K4me2 marks
same,IC50,MCF-7 breast cancer line [4],36.1 µM
CCCCCCCC(=O)NCCCC[C@H](NC(=O)[C@H](C)NC(=O)[C@H](CC(C)C)NC(=O)[C@H](CCC(N)=O)NC(=O)[C@H](CCCCN)NC(=O)[C@H](CCCNC(=N)N)NC(=O)[C@@H]1CCCN1C(=O)[C@H](C)NC(=O)[C@H](CCCCN)NC(=O)CNC(=O)CNC(=O)[C@@H](NC(=O)[C@@H]1CCC(=O)NCCCC[C@H](NC(=O)[C@H](CCSC)NC(=O)[C@H](C)NC(=O)[C@H](CCCNC(=N)N)NC(=O)[C@H](C)N)C(=O)N[C@@H]([C@@H](C)O)C(=O)N[C@@H](C)C(=O)N[C@@H](CCCNC(=N)N)C(=O)N[C@@H](CCCCN)C(=O)N1)[C@@H](C)O)C(N)=O [Compound 28] (H-ARAMKTARKETGGKAPRKQLAK(Octanoyl)-NH2; lactam 5-10),change in global H3K4 methylation compared to control,[5],did not induce any changes
same,IC50,[9]; 2 h,95.1 µM
same,H3K4me2 levels at the FEZ1 promoter,[6],greatest increase; also recorded: increases H3K4me2 marks
same,IC50,[3],40.2 µM
same,dose dependence of H3K4 methylation,"[7]; 0.1 µM and 1.0 µM, 48 h, preliminary study",modest dose dependent increase
same,H3K4me2 levels at the IGFBP2 promoter,[8],greatest increase; also recorded: increases H3K4me2 marks
same,IC50,MCF-7 breast cancer line [4],28.1 µM
"Cl.Cl.c1ccc([C@@H]2C[C@H]2NC2CCNCC2)cc1 [GSK-LSD1, reference compound]",H3K4me2 levels at the FEZ1 promoter,[6],increases H3K4me2 marks; also recorded: somewhat less effective
same,H3K4me2 levels at the IGFBP2 promoter,[8],increases H3K4me2 marks; also recorded: somewhat less effective
H-ARAM c[K^5TARK^9E^10] -NH2 [Compound 24],% inhibition of LSD1 at 500 nM,recombinant LSD1/CoREST,59.8% and 59.78 ± 5.71%
same,% cell death Calu 6,[3],inactive
H-ARAM c[K^5TARK^9E^10]TG-NH2 [Compound 23],% cell death K562,[9]; 1.0 µM,90 ± 9.4%
same,% cell death K562,[9]; 100 µM,18 ± 3.7%
same,% inhibition of LSD1 at 500 nM,recombinant LSD1/CoREST,67.3% and 67.31 ± 5.81%
same,% cell death Calu 6,[3],inactive
H-ARAM c[K^5TARK^9E^10]TGG-K^14A-NH2 [Compound 22],% cell death K562,[9]; 1.0 µM,53 ± 11.3%
same,% cell death K562,[9]; 100 µM,11 ± 3.2%
same,% inhibition of LSD1 at 500 nM,recombinant LSD1/CoREST,73.4% and 73.43 ± 3.75%
same,% cell death Calu 6,[3],inactive
H-ARAM c[K^5TARK^9E^10]TGG-K^14APRK-NH2 [Compound 21],% cell death K562,[9]; 1.0 µM,59 ± 8.1%
same,% cell death K562,[9]; 100 µM,9.5 ± 6.7%
H-ARTM-c[K^5TARK^9E^10]TGGK^14APRKQLA-NH2 [Compound 9],IC50,MCF-7 breast cancer line [10],153 µM
same,IC50,[11],158 µM
H-ARTMK^5TARKS^10TGGKAPRKQLA-OH [Compound 8],Ki,LSD1 bound to CoREST,0.05 µM
same,IC50,recombinant LSD1; read-out: IC50 (LSD1),0.051 µM
same,Ki,recombinant LSD1; read-out: Ki (LSD1),0.04 µM
